Experiment in all cases: relative viability (nuclei count vs DMSO), 5 days (fraction); higher = more cells survive
Compound in the assay “CX-5461 + Trametinib”: Cc1cnc(CNC(=O)c2c(=O)c3ccc(N4CCCN(C)CC4)nc3n3c2sc2ccccc23)cn1 [CX-5461] + CC(=O)Nc1cccc(-n2c(=O)n(C3CC3)c(=O)c3c(Nc4ccc(I)cc4F)n(C)c(=O)c(C)c32)c1 [Trametinib] (partner 0.02 µM)
The procedure, abridged: (§1)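 Values are medians from duplicate plates. Each reflects relative viability, defined as the nuclei count of treated wells over that of vehicle wells. Lung cancer cell lines in 1536-well plates were pin-tool dosed one day after seeding with one drug alone or with a fixed anchor-drug dose plus five library-drug doses (not always all listed) in √10 steps, then fixed, stained and imaged at 4× after 5 days.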

Compound in the assay “CX-5461 + Alpelisib”: Cc1cnc(CNC(=O)c2c(=O)c3ccc(N4CCCN(C)CC4)nc3n3c2sc2ccccc23)cn1 [CX-5461] + Cc1nc(NC(=O)N2CCC[C@H]2C(N)=O)sc1-c1ccnc(C(C)(C)C(F)(F)F)c1 [Alpelisib] (partner 2 µM)
In outline:
as §1

Compound in the assay “CX-5461 + Phenformin”: Cc1cnc(CNC(=O)c2c(=O)c3ccc(N4CCCN(C)CC4)nc3n3c2sc2ccccc23)cn1 [CX-5461] + N=C(N)NC(=N)NCCc1ccccc1 [Phenformin] (partner 250 µM)
In outline: as §1

Compound in the assay “IMD-0354 + Vorinostat”: O=C(Nc1cc(C(F)(F)F)cc(C(F)(F)F)c1)c1cc(Cl)ccc1O [IMD-0354] + O=C(CCCCCCC(=O)Nc1ccccc1)NO [Vorinostat] (partner 1 µM)
The procedure, abridged: as §1

For LU99A, the relative viability in the assay with CX-5461 + Trametinib (first compound 0.01 µM) worked out at 0.596; in the assay with CX-5461 + Trametinib (first compound 0.03162 µM), 0.488; in the assay with CX-5461 + Trametinib (first compound 0.1 µM), 0.477; with CX-5461 + Trametinib (first compound 0.3162 µM), 0.389; in the assay with CX-5461 + Trametinib (first compound 1 µM), 0.634; in the assay with CX-5461 + Alpelisib (first compound 0.01 µM), 0.536. Further, the relative viability worked out at 0.544 with CX-5461 + Alpelisib (first compound 0.03162 µM); 0.527 with CX-5461 + Alpelisib (first compound 0.1 µM); 0.364 in the assay with CX-5461 + Alpelisib (first compound 0.3162 µM); 0.413 in the assay with CX-5461 + Alpelisib (first compound 1 µM); 0.911 in the assay with CX-5461 + Phenformin (first compound 0.01 µM); 0.855 with CX-5461 + Phenformin (first compound 0.03162 µM). Also, the relative viability was 0.821 in the assay with CX-5461 + Phenformin (first compound 0.1 µM); 0.528 with CX-5461 + Phenformin (first compound 0.3162 µM); 0.21 with CX-5461 + Phenformin (first compound 1 µM); 0.417 with IMD-0354 + Vorinostat (first compound 0.04 µM); 0.498 with IMD-0354 + Vorinostat (first compound 0.1265 µM); 0.375 with IMD-0354 + Vorinostat (first compound 0.4 µM). Further, the relative viability is 0.2 with IMD-0354 + Vorinostat (first compound 1.265 µM) and 0.162 in the assay with IMD-0354 + Vorinostat (first compound 4 µM).

LXF-289: the relative viability stood at 0.757 in the assay with CX-5461 + Trametinib (first compound 0.01 µM); 0.647 with CX-5461 + Trametinib (first compound 0.03162 µM); 0.751 in the assay with CX-5461 + Trametinib (first compound 0.1 µM); 0.677 with CX-5461 + Trametinib (first compound 1 µM); 1.03 with CX-5461 + Alpelisib (first compound 0.01 µM); 1.07 with CX-5461 + Alpelisib (first compound 0.03162 µM). Also, the relative viability with CX-5461 + Alpelisib (first compound 0.1 µM) was 1.06; with CX-5461 + Alpelisib (first compound 0.3162 µM) it was 0.916; with CX-5461 + Alpelisib (first compound 1 µM) it was 1.02; with CX-5461 + Phenformin (first compound 0.01 µM) it was 0.523; with CX-5461 + Phenformin (first compound 0.03162 µM), 0.526; with CX-5461 + Phenformin (first compound 0.1 µM), 0.521. Also, the relative viability amounted to 0.255 in the assay with CX-5461 + Phenformin (first compound 0.3162 µM); 0.276 in the assay with CX-5461 + Phenformin (first compound 1 µM); 0.764 with IMD-0354 + Vorinostat (first compound 0.04 µM); 0.735 with IMD-0354 + Vorinostat (first compound 0.1265 µM); 0.612 in the assay with IMD-0354 + Vorinostat (first compound 0.4 µM); 0.261 in the assay with IMD-0354 + Vorinostat (first compound 1.265 µM). In the assay with IMD-0354 + Vorinostat (first compound 4 µM), the relative viability amounted to 0.137.

On to NCI-H522, for which the relative viability is 0.734 in the assay with CX-5461 + Trametinib (first compound 0.01 µM); 0.86 with CX-5461 + Trametinib (first compound 0.03162 µM); 0.815 with CX-5461 + Trametinib (first compound 0.1 µM); 0.751 with CX-5461 + Trametinib (first compound 1 µM); 0.653 in the assay with CX-5461 + Phenformin (first compound 0.01 µM); 0.614 with CX-5461 + Phenformin (first compound 0.03162 µM). In addition, the relative viability was 0.654 with CX-5461 + Phenformin (first compound 0.1 µM); 0.593 in the assay with CX-5461 + Phenformin (first compound 1 µM); 1.02 with IMD-0354 + Vorinostat (first compound 0.04 µM); 0.865 in the assay with IMD-0354 + Vorinostat (first compound 0.1265 µM); 0.637 with IMD-0354 + Vorinostat (first compound 0.4 µM); 0.757 with IMD-0354 + Vorinostat (first compound 1.265 µM). Also, the relative viability with IMD-0354 + Vorinostat (first compound 4 µM) stood at 0.449.

For NCI-H1299, the relative viability with CX-5461 + Alpelisib (first compound 0.01 µM) turned out to be 1.04; in the assay with CX-5461 + Alpelisib (first compound 0.03162 µM), 1.04; with CX-5461 + Alpelisib (first compound 0.1 µM), 1.08; with CX-5461 + Alpelisib (first compound 0.3162 µM), 1.1; in the assay with CX-5461 + Alpelisib (first compound 1 µM), 0.992.

As to NCI-H1563, the relative viability with CX-5461 + Alpelisib (first compound 0.01 µM) stood at 0.903; with CX-5461 + Alpelisib (first compound 0.03162 µM), 0.85; in the assay with CX-5461 + Alpelisib (first compound 0.1 µM), 0.899; with CX-5461 + Alpelisib (first compound 0.3162 µM), 0.901; with CX-5461 + Alpelisib (first compound 1 µM) it was 0.489; with CX-5461 + Phenformin (first compound 0.01 µM) it was 0.663. Also, the relative viability came to 0.677 with CX-5461 + Phenformin (first compound 0.03162 µM), 0.531 with CX-5461 + Phenformin (first compound 0.1 µM), 0.627 with CX-5461 + Phenformin (first compound 0.3162 µM) and 0.457 with CX-5461 + Phenformin (first compound 1 µM).

As for NCI-H1623, the relative viability is 0.556 with CX-5461 + Phenformin (first compound 0.01 µM); 0.588 with CX-5461 + Phenformin (first compound 0.03162 µM); 0.556 in the assay with CX-5461 + Phenformin (first compound 0.1 µM); 0.616 in the assay with CX-5461 + Phenformin (first compound 0.3162 µM); 0.593 with CX-5461 + Phenformin (first compound 1 µM).

For NCI-H1648, the relative viability stood at 0.47 with CX-5461 + Trametinib (first compound 0.01 µM); 0.514 with CX-5461 + Trametinib (first compound 0.03162 µM); 0.488 in the assay with CX-5461 + Trametinib (first compound 0.1 µM); 0.534 in the assay with CX-5461 + Trametinib (first compound 0.3162 µM); 0.509 with CX-5461 + Trametinib (first compound 1 µM); 0.303 in the assay with IMD-0354 + Vorinostat (first compound 0.04 µM). Further, the relative viability with IMD-0354 + Vorinostat (first compound 0.1265 µM) worked out at 0.694; with IMD-0354 + Vorinostat (first compound 0.4 µM) it was 0.289; in the assay with IMD-0354 + Vorinostat (first compound 1.265 µM), 0.617; with IMD-0354 + Vorinostat (first compound 4 µM), 0.3.

For the cell line NCI-H1650, the relative viability in the assay with CX-5461 + Trametinib (first compound 0.01 µM) was determined as 0.564; with CX-5461 + Trametinib (first compound 0.03162 µM), 0.447; in the assay with CX-5461 + Trametinib (first compound 0.1 µM), 0.532; with CX-5461 + Trametinib (first compound 0.3162 µM), 0.678; in the assay with CX-5461 + Trametinib (first compound 1 µM), 0.207; with CX-5461 + Phenformin (first compound 0.01 µM), 0.409. The relative viability stood at 0.275 in the assay with CX-5461 + Phenformin (first compound 0.03162 µM); 0.191 in the assay with CX-5461 + Phenformin (first compound 0.1 µM); 0.33 with CX-5461 + Phenformin (first compound 0.3162 µM); 0.148 with CX-5461 + Phenformin (first compound 1 µM); 0.541 in the assay with IMD-0354 + Vorinostat (first compound 0.04 µM); 0.724 in the assay with IMD-0354 + Vorinostat (first compound 0.1265 µM). Besides, the values for the relative viability with IMD-0354 + Vorinostat (first compound 0.4 µM), with IMD-0354 + Vorinostat (first compound 1.265 µM) and with IMD-0354 + Vorinostat (first compound 4 µM) were 0.377, 0.199 and 0.193, respectively.

NCI-H1703: the relative viability in the assay with CX-5461 + Alpelisib (first compound 0.01 µM) was determined as 0.314; with CX-5461 + Alpelisib (first compound 0.03162 µM), 0.419; with CX-5461 + Alpelisib (first compound 0.1 µM), 0.28; with CX-5461 + Alpelisib (first compound 0.3162 µM) it was 0.332; with CX-5461 + Alpelisib (first compound 1 µM), 0.267.

On to NCI-H1792, for which the relative viability with CX-5461 + Trametinib (first compound 0.01 µM) came out at 0.542; in the assay with CX-5461 + Trametinib (first compound 0.03162 µM), 0.434; with CX-5461 + Trametinib (first compound 0.1 µM), 0.407; in the assay with CX-5461 + Trametinib (first compound 0.3162 µM) it was 0.401; with CX-5461 + Trametinib (first compound 1 µM), 0.52; with CX-5461 + Alpelisib (first compound 0.01 µM), 0.774. Further, the relative viability is 0.744 in the assay with CX-5461 + Alpelisib (first compound 0.03162 µM); 0.706 in the assay with CX-5461 + Alpelisib (first compound 0.1 µM); 0.898 in the assay with CX-5461 + Alpelisib (first compound 0.3162 µM); 0.602 with CX-5461 + Alpelisib (first compound 1 µM); 0.387 with CX-5461 + Phenformin (first compound 0.01 µM); 0.198 in the assay with CX-5461 + Phenformin (first compound 0.03162 µM). For the same cell line, the relative viability in the assay with CX-5461 + Phenformin (first compound 0.1 µM) was determined as 0.114; with CX-5461 + Phenformin (first compound 0.3162 µM) it was 0.401; with CX-5461 + Phenformin (first compound 1 µM), 0.111.

In the case of NCI-H2342, the relative viability in the assay with CX-5461 + Trametinib (first compound 0.01 µM) stood at 0.787; with CX-5461 + Trametinib (first compound 0.03162 µM), 0.81; with CX-5461 + Trametinib (first compound 0.1 µM), 0.832; in the assay with CX-5461 + Trametinib (first compound 0.3162 µM) it was 0.871; in the assay with CX-5461 + Trametinib (first compound 1 µM), 0.918; in the assay with CX-5461 + Phenformin (first compound 0.01 µM), 0.645. Moreover, the relative viability with CX-5461 + Phenformin (first compound 0.03162 µM) was found to be 0.53; in the assay with CX-5461 + Phenformin (first compound 0.1 µM), 0.535; with CX-5461 + Phenformin (first compound 0.3162 µM), 0.675; in the assay with CX-5461 + Phenformin (first compound 1 µM), 0.586; with IMD-0354 + Vorinostat (first compound 0.04 µM), 0.769; in the assay with IMD-0354 + Vorinostat (first compound 0.1265 µM), 0.853. The relative viability in the assay with IMD-0354 + Vorinostat (first compound 0.4 µM) came out at 0.53; with IMD-0354 + Vorinostat (first compound 1.265 µM), 0.697; in the assay with IMD-0354 + Vorinostat (first compound 4 µM) it was 0.364.

Consider SW 900, for which the relative viability in the assay with CX-5461 + Trametinib (first compound 0.01 µM) was determined as 0.664; with CX-5461 + Trametinib (first compound 0.03162 µM), 0.84; with CX-5461 + Trametinib (first compound 0.3162 µM) it was 0.548; with CX-5461 + Trametinib (first compound 1 µM), 0.829; with CX-5461 + Phenformin (first compound 0.01 µM), 0.656; with CX-5461 + Phenformin (first compound 0.03162 µM), 0.641. The relative viability stood at 0.743 with CX-5461 + Phenformin (first compound 0.1 µM); 0.532 in the assay with CX-5461 + Phenformin (first compound 0.3162 µM); 0.209 with CX-5461 + Phenformin (first compound 1 µM); 0.496 with IMD-0354 + Vorinostat (first compound 0.04 µM); 0.554 in the assay with IMD-0354 + Vorinostat (first compound 0.1265 µM); 0.243 with IMD-0354 + Vorinostat (first compound 0.4 µM). Also, the relative viability with IMD-0354 + Vorinostat (first compound 1.265 µM) was found to be 0.227; in the assay with IMD-0354 + Vorinostat (first compound 4 µM) it was 0.265.

The values above are taken from the supplement of paper PMC10307832.
